Reference: ChEMBL document CHEMBL5230100, “Novel quinazoline-based EGFR kinase inhibitors: A review focussing on SAR and molecular docking studies (2015-2019)” (Eur J Med Chem, 2020)
Blank lines part the entries; values can stand above or below the compound they belong to.

Tests used:
A549 [1] = test: Antiproliferative activity against human A549 cells assessed as cell growth inhibition incubated for 72 hrs under normoxia condition by SRB assay; assay type: functional, cell-based; settings: A549, 72 h
A549 [2] = test: Antiproliferative activity against human A549 cells assessed as cell growth inhibition incubated for 72 hrs under hypoxia condition by SRB assay; assay type: functional, cell-based; settings: A549, 72 h
HT-29 [3] = test: Antiproliferative activity against human HT-29 cells assessed as cell growth inhibition incubated for 72 hrs under normoxia condition by SRB assay; assay type: functional, cell-based; settings: HT-29, 72 h
HT-29 [4] = test: Antiproliferative activity against human HT-29 cells assessed as cell growth inhibition incubated for 72 hrs under hypoxia condition by SRB assay; assay type: functional, cell-based; settings: HT-29, 72 h
A549 [5] = test: cells; settings: Homo sapiens
Description: Antiproliferative activity against human A549 cells assessed as cell growth inhibition by MTT assay

SW480 = test: Antiproliferative activity against human SW480 cells assessed as cell growth inhibition by MTT assay; assay type: functional, cell-based
A-431 [6] = test: Antiproliferative activity against human A-431 cells assessed as cell growth inhibition by MTT assay; assay type: functional, cell-based
NCI-H1975 = test: Antiproliferative activity against human NCI-H1975 cells assessed as cell growth inhibition by MTT assay; assay type: functional, cell-based
A549 [7] = test: cells; assay type: functional, cell-based; settings: Homo sapiens, A549, 72 h
Description: Antiproliferative activity against human A549 cells assessed as cell growth inhibition incubated for 72 hrs by MTT assay

A-431 [8] = test: cells; assay type: functional, cell-based; settings: Homo sapiens, A-431, 72 h
Description: Antiproliferative activity against human A-431 cells assessed as cell growth inhibition incubated for 72 hrs by MTT assay

cells = assay type: functional, cell-based; settings: Homo sapiens, HBE, 72 h
Description: Antiproliferative activity against human HBE cells assessed as cell growth inhibition incubated for 72 hrs by MTT assay

A-431 [9] = test: Antiproliferative activity against human A-431 cells assessed as cell growth inhibition incubated for 24 hrs by MTT assay; assay type: functional
Caspase-3 (Homo sapiens) = Caspase-3 (Homo sapiens) (UniProt P42574); test: Activation of caspase 3 (unknown origin); settings: filed as activator
Caspase-3 (Homo sapiens), sequence (P42574 29-175 limits assumed): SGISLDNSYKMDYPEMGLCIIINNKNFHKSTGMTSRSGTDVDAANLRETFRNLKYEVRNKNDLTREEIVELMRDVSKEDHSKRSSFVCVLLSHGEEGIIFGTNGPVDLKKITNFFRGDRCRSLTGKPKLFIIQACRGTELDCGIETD
Caspase-3 (Homo sapiens), sequence (P42574 176-277 limits assumed): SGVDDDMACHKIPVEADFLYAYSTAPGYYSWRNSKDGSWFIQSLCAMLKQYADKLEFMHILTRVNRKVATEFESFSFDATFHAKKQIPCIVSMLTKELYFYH

A549 [10] = test: Induction of apoptosis in human A549 cells measured after 48 hrs by Annexin V-FITC/ Propidium iodide staining based flow cytometry relative to control; assay type: functional
HT-29 [11] = test: Antiproliferative activity against human HT-29 cells assessed as cell growth inhibition incubated for 72 hrs by MTT assay; assay type: functional, cell-based
NCI-H460 = test: Antiproliferative activity against human NCI-H460 cells assessed as cell growth inhibition incubated for 72 hrs by MTT assay; assay type: functional, cell-based; settings: NCI-H460, 72 h
[12] = biological target: Vascular endothelial growth factor receptor 2 (Homo sapiens, UniProt P35968)
Vascular endothelial growth factor receptor 2, sequence (P35968 whole entry): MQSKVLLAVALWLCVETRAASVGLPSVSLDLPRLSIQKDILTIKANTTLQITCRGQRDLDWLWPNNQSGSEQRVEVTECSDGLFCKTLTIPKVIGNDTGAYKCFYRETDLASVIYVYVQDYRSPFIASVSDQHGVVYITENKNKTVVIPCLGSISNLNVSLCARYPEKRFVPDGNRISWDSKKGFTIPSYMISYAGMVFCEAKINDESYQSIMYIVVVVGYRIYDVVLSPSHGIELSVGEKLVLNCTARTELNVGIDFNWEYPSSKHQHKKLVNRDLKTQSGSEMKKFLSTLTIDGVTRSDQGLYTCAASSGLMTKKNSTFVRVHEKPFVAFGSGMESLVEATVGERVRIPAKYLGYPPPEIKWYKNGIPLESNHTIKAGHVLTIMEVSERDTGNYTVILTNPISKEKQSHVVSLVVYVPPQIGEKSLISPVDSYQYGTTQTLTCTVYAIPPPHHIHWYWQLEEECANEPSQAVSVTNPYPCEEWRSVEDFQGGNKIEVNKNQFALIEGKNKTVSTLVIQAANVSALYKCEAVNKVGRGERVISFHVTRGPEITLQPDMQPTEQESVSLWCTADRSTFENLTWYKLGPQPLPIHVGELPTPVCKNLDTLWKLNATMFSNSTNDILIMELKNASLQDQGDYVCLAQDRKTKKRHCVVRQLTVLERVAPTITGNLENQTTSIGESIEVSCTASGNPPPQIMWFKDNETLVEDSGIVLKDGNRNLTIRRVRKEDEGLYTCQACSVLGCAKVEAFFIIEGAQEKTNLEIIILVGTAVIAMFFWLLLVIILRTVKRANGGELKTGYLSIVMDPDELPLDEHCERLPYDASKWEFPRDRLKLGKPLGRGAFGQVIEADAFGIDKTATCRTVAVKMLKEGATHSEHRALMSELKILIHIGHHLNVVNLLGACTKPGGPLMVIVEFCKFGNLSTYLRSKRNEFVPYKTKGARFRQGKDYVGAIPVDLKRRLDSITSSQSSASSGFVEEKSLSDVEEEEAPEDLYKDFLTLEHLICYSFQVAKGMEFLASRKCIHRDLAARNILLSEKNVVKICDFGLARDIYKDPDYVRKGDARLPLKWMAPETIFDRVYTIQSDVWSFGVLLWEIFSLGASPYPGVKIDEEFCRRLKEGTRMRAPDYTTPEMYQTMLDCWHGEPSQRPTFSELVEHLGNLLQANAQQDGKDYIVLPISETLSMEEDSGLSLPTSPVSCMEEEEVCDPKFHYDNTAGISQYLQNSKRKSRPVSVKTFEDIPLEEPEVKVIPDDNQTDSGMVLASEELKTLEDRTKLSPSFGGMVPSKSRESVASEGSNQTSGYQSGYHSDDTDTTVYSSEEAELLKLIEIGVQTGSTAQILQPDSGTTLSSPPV

MDA-MB-231 [13] = test: cells; settings: Homo sapiens, MDA-MB-231, 72 h
Description: Antiproliferative activity against human MDA-MB-231 cells assessed as cell growth inhibition incubated for 72 hrs by MTT assay

MDA-MB-231 [14] = test: Antiproliferative activity against human MDA-MB-231 cells assessed as cell growth inhibition incubated for 48 hrs by MTT assay; assay type: functional, cell-based; settings: MDA-MB-231, 48 h
A549 [15] = test: cells; assay type: functional, cell-based; settings: Homo sapiens, A549, 48 h
Description: Antiproliferative activity against human A549 cells assessed as cell growth inhibition incubated for 48 hrs by MTT assay

CNE = test: cells; assay type: functional, cell-based; settings: Homo sapiens, 48 h
Description: Antiproliferative activity against human CNE cells assessed as cell growth inhibition incubated for 48 hrs by MTT assay

A549 [16] = test: Radiosensitizing activity against human A549 cells assessed as radiosensitization ratio by MTT assay; assay type: functional
HepG2 = test: cells; assay type: functional, cell-based; settings: Homo sapiens, HepG2, 48 h
Description: Antiproliferative activity against human HepG2 cells assessed as cell growth inhibition incubated for 48 hrs by MTT assay

SK-OV-3 = test: cells; assay type: functional, cell-based; settings: Homo sapiens, SK-OV-3, 48 h
Description: Antiproliferative activity against human SK-OV-3 cells assessed as cell growth inhibition incubated for 48 hrs by MTT assay

MCF7 = test: Antiproliferative activity against human MCF7 cells assessed as cell growth inhibition incubated for 72 hrs by MTT assay; assay type: functional, cell-based; settings: MCF7, 72 h
MRC5 = test: Antiproliferative activity against human MRC5 cells assessed as cell growth inhibition incubated for 72 hrs by MTT assay; assay type: functional, cell-based; settings: MRC5, 72 h
[17] = biological target: Epidermal growth factor receptor (Homo sapiens, UniProt P00533, 746-750DEL)
Epidermal growth factor receptor (Homo sapiens, UniProt P00533, 746-750DEL), sequence (P00533 whole entry, looked up, stated change not applied): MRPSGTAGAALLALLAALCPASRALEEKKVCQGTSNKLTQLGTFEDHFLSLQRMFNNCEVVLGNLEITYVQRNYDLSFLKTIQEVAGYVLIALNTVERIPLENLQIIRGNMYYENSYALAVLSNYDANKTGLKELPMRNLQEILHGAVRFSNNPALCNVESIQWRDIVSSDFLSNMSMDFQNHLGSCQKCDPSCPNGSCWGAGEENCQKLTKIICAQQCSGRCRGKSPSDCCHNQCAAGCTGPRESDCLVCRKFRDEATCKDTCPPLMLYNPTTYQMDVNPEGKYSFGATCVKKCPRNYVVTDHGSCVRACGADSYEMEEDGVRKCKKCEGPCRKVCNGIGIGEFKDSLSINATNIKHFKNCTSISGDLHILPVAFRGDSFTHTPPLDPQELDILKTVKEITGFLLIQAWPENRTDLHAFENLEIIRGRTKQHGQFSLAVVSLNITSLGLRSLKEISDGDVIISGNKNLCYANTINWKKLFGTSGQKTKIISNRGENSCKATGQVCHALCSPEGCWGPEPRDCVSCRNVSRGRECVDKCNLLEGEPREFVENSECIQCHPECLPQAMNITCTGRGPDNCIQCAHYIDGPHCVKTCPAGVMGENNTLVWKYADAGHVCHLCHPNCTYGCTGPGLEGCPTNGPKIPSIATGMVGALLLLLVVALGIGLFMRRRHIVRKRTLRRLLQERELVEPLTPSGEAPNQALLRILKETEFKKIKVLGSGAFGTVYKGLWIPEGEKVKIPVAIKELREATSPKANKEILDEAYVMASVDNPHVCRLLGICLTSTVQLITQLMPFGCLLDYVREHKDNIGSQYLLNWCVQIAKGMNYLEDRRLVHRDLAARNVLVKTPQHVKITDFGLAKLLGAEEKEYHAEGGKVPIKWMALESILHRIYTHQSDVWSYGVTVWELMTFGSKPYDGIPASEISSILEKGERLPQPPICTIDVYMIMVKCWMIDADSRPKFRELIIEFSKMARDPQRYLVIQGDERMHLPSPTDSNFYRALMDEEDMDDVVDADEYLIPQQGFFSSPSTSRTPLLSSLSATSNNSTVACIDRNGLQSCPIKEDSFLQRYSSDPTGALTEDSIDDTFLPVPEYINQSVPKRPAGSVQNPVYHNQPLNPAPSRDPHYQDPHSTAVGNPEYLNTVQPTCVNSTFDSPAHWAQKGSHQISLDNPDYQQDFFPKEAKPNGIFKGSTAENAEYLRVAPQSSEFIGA

PC-9 = test: cells; assay type: functional, cell-based; settings: Homo sapiens, PC-9, 72 h
Description: Antiproliferative activity against human PC-9 cells assessed as cell growth inhibition incubated for 72 hrs by SRB assay

A-431 [18] = test: Antiproliferative activity against human A-431 cells assessed as cell growth inhibition incubated for 72 hrs by SRB assay; assay type: functional, cell-based; settings: A-431, 72 h
[19] = AUClast in Sprague-Dawley rat plasma at 10 mg/kg, iv by LC-MS/MS analysis; assay type: ADME, organism-based; set-up: dose 10 mg/kg, route iv
[20] = AUC (0 to infinity) in Sprague-Dawley rat plasma at 10 mg/kg, iv by LC-MS/MS analysis; assay type: ADME, organism-based; set-up: dose 10 mg/kg, route iv
[21] = MRT (0 to 24 hrs) in Sprague-Dawley rat plasma at 10 mg/kg, iv by LC-MS/MS analysis; assay type: ADME, organism-based
A549 [22] = test: Induction of apoptosis in human A549 cells assessed as late apoptotic cells measured after 48 hrs by Annexin V-FITC/ Propidium iodide staining based flow cytometry relative to control; assay type: functional
[23] = biological target: T1, Epidermal growth factor receptor (Homo sapiens, UniProt P00533)
T1 sequence (P00533 whole entry): as the sequence (P00533 whole entry, looked up, stated change not applied) above

[24] = biological target: T1, Epidermal growth factor receptor; remark: listed apart in the source
A-431 [25] = test: cells; assay type: functional, cell-based; settings: Homo sapiens, A-431, 48 h
Description: Antiproliferative activity against human A-431 cells assessed as cell growth inhibition incubated for 48 hrs by MTT assay

- IC50 (A549 [1]): 11.3 µM
- IC50 (A549 [2]): 13.3 µM
- IC50 (HT-29 [3]): 6.81 µM
- IC50 (HT-29 [4]): 8.85 µM
- IC50 (A549 [5]): 14.9 µM
Compound: CS(=O)(=O)CCNCc1ccc(-c2ccc3ncnc(Nc4ccc(OCc5cccc(F)c5)c(Cl)c4)c3c2)o1 [LAPATINIB]

- IC50 (SW480): 6.67 µM
- IC50 (A-431 [6]): 2.21 µM
- IC50 (NCI-H1975): 9.79 µM
- IC50 (A549 [5]): 5.46 µM
Compound: CCN(CC)CCNCc1ccc(-c2ccc3ncnc(Nc4ccc(OCc5cccc(F)c5)c(Cl)c4)c3c2)o1

- IC50 (A549 [7]): 6.5 µM
- IC50 (A-431 [8]): 1.29 µM
- IC50 (cells): > 40 µM
Compound: C=CC(=O)Nc1cccc(Nc2nc(Nc3ccc(N4CCN(C(C)=O)CC4)cc3OC)ncc2C(F)(F)F)c1 [ROCILETINIB]

- Activity (Caspase-3 (Homo sapiens)): 480 pg/mL
Compound: C#Cc1cccc(Nc2ncnc3cc(OCCOC)c(OCCOC)cc23)c1 [ERLOTINIB]
- IC5 (A-431 [9]): 3 µM
- Activity (A549 [10]): 53.9%

- IC50 (HT-29 [11]; Homo sapiens, HT-29, 72 h): 0.15 µM
- IC50 (NCI-H460): 0.089 µM
- IC50 (A549 [7]): 0.36 µM
- IC50 [12]: 0.093 µM
- IC50 (MDA-MB-231 [13]): 0.75 µM
Compound: Cc1cccc(Cl)c1NC(=O)Nc1ccc(-c2nc(NCCN(C)C)c3ccccc3n2)cc1

- IC50 (MDA-MB-231 [14]): 3.2 µM
- IC50 (A549 [15]): 23.3 µM
- IC50 (CNE): 2.1 µM
- IC50 (HepG2): 34.9 µM
- IC50 (SK-OV-3): 12.5 µM
Compound: Cc1ccc(Nc2ncnc3ccc(NC(=O)c4cc(OCc5ccccc5)c5c(c4)C(=O)c4cccc(OCc6ccccc6)c4C5=O)cc23)cc1
- Ratio (A549 [16]): 1.88

- IC50 (MCF7): 2.5 µM
- IC50 (HT-29 [11]; Homo sapiens, HT-29, 72 h): 2.5 µM
- IC50 (HT-29 [11]; ht-29): 3.27 µM
- IC50 (NCI-H460): 2.15 µM
- IC50 (A549 [7]): 4.47 µM
- IC50 (MDA-MB-231 [13]): 3.81 µM
Compound: CNC(=O)c1cc(Oc2ccc(NC(=O)Nc3ccc(Cl)c(C(F)(F)F)c3)cc2)ccn1 [SORAFENIB]
- IC50 (MRC5): 24.1 µM

Compound: C#Cc1cccc(Nc2ncnc3cc(OC)c(OCCCN4CCOCC4)cc23)c1
- IC50 [17]: 0.00123 µM
- IC50 (PC-9): 0.1 µM
- IC50 (A-431 [18]): < 0.1 µM
- AUC(0-t) [19]: 6110 ng·h/mL
- AUC(0-inf) [20]: 6150 ng·h/mL
- MRT last [21]: 3.96 h

Compound: CN(C)C/C=C/C(=O)Nc1cc2c(Nc3ccc(F)c(Cl)c3)ncnc2cc1O[C@H]1CCOC1 [AFATINIB]
- Activity (A549 [22]): 13.53%

Compound: CN(C)C/C=C/C(=O)Nc1cc2c(N3CCc4ccccc43)ncnc2cc1O[C@@H]1CCOC1
- Activity (A549 [22]): 14.59%

- IC50 [23]: 0.12 µM
- IC50 (A549 [1]): 1.59 µM
- IC50 (A549 [2]): 1.09 µM
- IC50 (HT-29 [3]): 2.46 µM
- IC50 (HT-29 [4]): 1.35 µM
Compound: COc1cc2ncnc(Nc3ccc(OCCn4ccnc4[N+](=O)[O-])c(Cl)c3)c2cc1OCCCN1CCOCC1

- IC50 (MDA-MB-231 [14]): 10.2 µM
- IC50 (A549 [15]): 10.9 µM
- IC50 [24]: 0.0214 µM
- IC50 (A-431 [25]): 1.68 µM
Compound: CCCN(c1ccc(F)c(Cl)c1)c1ncnc2cc(OC)c(OCCCN3CCOCC3)cc12
